Laboratory results reported in article PMC4783567, “The Effect of Vinpocetine on Human Cytochrome P450 Isoenzymes by Using a Cocktail Method” (Evidence-based Complementary and Alternative Medicine : eCAM, 2016).

Assays:
Assay in all cases: five-probe cocktail in human liver microsomes, LC-MS/MS of metabolites
Assay type in all cases: biochemical
CYP2E1 = biological target: T1, CYP2E1 (Homo sapiens, UniProt P05181); settings: chlorzoxazone 6-hydroxylation, printed 50 mM chlorzoxazone (unit as printed), 1 mM NADPH, pH 7.4, 37°C; unreliable (extrapolated above top concentration 100 μM; text says > 100 μM)
T1 construct: native enzyme in pooled human liver microsomes (BD Gentest); activity read by chlorzoxazone 6-hydroxylation
T1 sequence (P05181 whole entry): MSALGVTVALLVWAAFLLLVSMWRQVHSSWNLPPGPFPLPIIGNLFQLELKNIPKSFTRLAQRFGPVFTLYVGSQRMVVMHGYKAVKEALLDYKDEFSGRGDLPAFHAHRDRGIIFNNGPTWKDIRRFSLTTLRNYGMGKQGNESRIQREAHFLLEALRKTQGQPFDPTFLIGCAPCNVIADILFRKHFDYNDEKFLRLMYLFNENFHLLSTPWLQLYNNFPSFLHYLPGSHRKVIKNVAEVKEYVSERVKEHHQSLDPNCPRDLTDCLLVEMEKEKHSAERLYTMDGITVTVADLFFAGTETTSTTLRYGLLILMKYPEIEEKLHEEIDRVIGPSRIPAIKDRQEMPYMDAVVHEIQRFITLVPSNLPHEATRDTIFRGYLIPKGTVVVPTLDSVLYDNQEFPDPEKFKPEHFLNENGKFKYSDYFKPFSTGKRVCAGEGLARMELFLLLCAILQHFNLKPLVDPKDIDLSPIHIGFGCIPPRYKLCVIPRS
Excerpt: five-probe cocktail in human liver microsomes, LC-MS/MS of metabolites on CYP2E1

CYP2C9 = biological target: T2, CYP2C9 (Homo sapiens, UniProt P11712); settings: tolbutamide 4-hydroxylation, printed 100 mM tolbutamide (unit as printed), 1 mM NADPH, 3.3 mM MgCl2, pH 7.4, 37°C, 30 min; b29 prints 68.91; Table 2 prints vinpocetine in μg/mL, methods in μM
T2 construct: native enzyme in pooled human liver microsomes (BD Gentest); activity read by tolbutamide 4-hydroxylation
T2 sequence (P11712 whole entry): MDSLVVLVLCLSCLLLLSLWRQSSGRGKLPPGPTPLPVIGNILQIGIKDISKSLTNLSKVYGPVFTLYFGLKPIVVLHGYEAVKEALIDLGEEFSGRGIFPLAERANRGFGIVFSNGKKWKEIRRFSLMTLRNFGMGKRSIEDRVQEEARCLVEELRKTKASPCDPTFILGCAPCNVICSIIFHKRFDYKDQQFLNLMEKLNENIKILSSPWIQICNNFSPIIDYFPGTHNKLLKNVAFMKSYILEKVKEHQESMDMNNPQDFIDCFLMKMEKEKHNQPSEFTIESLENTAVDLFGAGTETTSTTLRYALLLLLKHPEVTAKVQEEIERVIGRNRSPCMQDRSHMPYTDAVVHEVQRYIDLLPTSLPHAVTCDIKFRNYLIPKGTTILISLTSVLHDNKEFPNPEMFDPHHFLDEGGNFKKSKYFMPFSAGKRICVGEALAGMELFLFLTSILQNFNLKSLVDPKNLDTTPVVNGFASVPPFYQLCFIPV
Excerpt: five-probe cocktail in human liver microsomes, LC-MS/MS of metabolites on CYP2C9

CYP3A4 = biological target: T3, CYP3A4 (Homo sapiens, UniProt P08684); settings: testosterone 6β-hydroxylation, printed 50 mM testosterone (unit as printed), otherwise as row above; unreliable (extrapolated above top concentration 100 μM; text says > 100 μM)
T3 construct: native enzyme in pooled human liver microsomes (BD Gentest); activity read by testosterone 6beta-hydroxylation (CYP3A5 may contribute)
T3 sequence (P08684 2-503): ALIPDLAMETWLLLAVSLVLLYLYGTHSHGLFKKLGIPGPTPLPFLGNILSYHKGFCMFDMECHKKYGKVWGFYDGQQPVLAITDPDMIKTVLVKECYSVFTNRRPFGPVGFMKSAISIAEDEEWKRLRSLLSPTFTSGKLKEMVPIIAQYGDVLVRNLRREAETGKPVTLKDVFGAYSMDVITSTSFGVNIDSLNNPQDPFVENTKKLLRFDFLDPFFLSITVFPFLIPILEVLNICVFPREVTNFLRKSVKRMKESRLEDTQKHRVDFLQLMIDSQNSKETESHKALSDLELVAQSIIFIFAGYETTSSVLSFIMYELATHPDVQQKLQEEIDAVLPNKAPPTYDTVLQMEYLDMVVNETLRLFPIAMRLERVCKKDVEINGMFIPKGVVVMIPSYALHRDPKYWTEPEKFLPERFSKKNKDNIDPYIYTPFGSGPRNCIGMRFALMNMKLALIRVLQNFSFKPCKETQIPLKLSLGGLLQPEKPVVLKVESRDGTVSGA
Excerpt: five-probe cocktail in human liver microsomes, LC-MS/MS of metabolites on CYP3A4

CYP2C19 = biological target: T4, CYP2C19 (Homo sapiens, UniProt P33261); settings: omeprazole 5-hydroxylation, printed 50 mM omeprazole (unit as printed), 1 mM NADPH, pH 7.4, 37°C; unreliable (extrapolated above top concentration 100 μM; text says > 100 μM)
T4 construct: native enzyme in pooled human liver microsomes (BD Gentest); activity read by omeprazole 5-hydroxylation
T4 sequence (P33261 whole entry): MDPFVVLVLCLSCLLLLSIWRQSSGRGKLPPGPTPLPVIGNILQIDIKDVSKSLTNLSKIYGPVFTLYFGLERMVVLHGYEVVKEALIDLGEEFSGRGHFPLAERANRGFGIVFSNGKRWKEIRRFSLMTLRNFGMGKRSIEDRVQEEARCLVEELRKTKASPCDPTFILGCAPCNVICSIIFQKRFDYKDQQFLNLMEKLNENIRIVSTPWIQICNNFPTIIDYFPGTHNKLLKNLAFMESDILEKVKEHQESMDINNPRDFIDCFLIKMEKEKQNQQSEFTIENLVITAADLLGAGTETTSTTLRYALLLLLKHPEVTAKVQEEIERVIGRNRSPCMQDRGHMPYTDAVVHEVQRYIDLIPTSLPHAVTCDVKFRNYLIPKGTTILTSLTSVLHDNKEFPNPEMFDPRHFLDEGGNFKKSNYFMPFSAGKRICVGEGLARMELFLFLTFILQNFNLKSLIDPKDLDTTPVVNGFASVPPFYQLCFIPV
Excerpt: five-probe cocktail in human liver microsomes, LC-MS/MS of metabolites on CYP2C19

CYP2D6 = biological target: T5, CYP2D6 (Homo sapiens, UniProt P10635); settings: dextrorphan formation, printed 5 mM dextromethorphan (unit as printed), 1 mM NADPH, pH 7.4, 37°C; unreliable (extrapolated above top concentration 100 μM; text says > 100 μM)
T5 construct: native enzyme in pooled human liver microsomes (BD Gentest); activity read by dextrorphan formation from dextromethorphan
T5 sequence (P10635 whole entry): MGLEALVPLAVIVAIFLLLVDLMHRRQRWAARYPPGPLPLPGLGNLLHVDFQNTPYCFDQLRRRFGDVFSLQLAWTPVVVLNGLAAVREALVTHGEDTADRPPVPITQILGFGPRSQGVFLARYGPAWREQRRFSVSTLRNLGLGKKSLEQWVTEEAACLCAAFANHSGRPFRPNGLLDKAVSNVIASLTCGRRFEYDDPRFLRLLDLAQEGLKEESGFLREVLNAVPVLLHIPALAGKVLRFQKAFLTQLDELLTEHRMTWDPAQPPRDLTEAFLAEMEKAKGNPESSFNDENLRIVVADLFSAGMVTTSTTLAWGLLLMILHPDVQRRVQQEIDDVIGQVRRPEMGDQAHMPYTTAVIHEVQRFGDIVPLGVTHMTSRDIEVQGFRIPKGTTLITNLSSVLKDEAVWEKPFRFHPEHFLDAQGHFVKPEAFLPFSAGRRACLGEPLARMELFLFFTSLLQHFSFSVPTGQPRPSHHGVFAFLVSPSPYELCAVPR
Excerpt: five-probe cocktail in human liver microsomes, LC-MS/MS of metabolites on CYP2D6

`CCOC(=O)C1=C[C@]2(CC)CCCN3CCc4c(n1c1ccccc41)[C@@H]32` [Vinpocetine, ethyl (3α,16α)-eburnamenine-14-carboxylate] was tested. Which “IC50” value (CYP2E1) did it give?
The value was 2837 µM.

And the “IC50 (μM)” value (CYP2C9)?
The value was 68.96 [95% CI: 49.14–96.79] μM.

And the “IC50” value (CYP3A4)?
Its value is 107.1 µM.

And the “IC50” value (CYP2C19)?
The value was 285.1 µM.

What about the “IC50” value (CYP2D6) of the same molecule?
The value was 104.4 µM.
